Entries after “also recorded” stand apart in the source; their conditions may differ. Where two headings read alike, the source gives them in different places.

In data set [1] the test system is SS RBC adhesion to endothelial cells treated with IL-13 and histamine. Description: In vitro sickle red blood cell adhesion to HUVECs in flow chamber. The settings on record: for Inhibition of SS RBC adhesion to endothelial cells (overall): HUVECs stimulated with IL-13 and histamine. Format: cell-based, human. On the procedure:
Primary HUVECs (passage 4 only) were cultured to confluency on gelatin-coated slides in […] basal medium 2 (EBM2; Clonetics, Walkersville, Md.) supplemented with endothelial growth medium 2 (EGM2; Clonetics, Walkersville, Md.). For each assay, a gelatin coated slide with HUVECs grown to confluence was mounted inside a graduated height flow chamber. Both untreated and IL-13/histamine-stimulated slides were initially studied with each SS RBC sample. Subsequent experiments then compared adhesion with and without potential inhibitors of adhesion.
Human blood samples from patients homozygous for hemoglobin S were collected into citrate tubes.
In vitro studies of cell adhesion exposed to flowing conditions represent in vivo events, as compared to adhesion assays in which cells are simply allowed to incubate overlaid on a chemical or cellular substrate (e.g. laminin or endothelial cells) and then washed off by either non-controlled forces (e.g. pipette washes) or controlled forces (e.g. rotary motion devices). Flow chambers can produce either a constant shear stress throughout the chamber or a variable shear stress, produced by creating a variable height for the chamber.
Surface expression of P-selectin on IL-13 and histamine stimulated and unstimulated endothelial cells (HUVECs) were tested by flow cytometry. Measurement of the ability of SS RBC to adhere to these endothelial cells was performed in flow chambers. Negative control experiments included untreated endothelial cells, so that SS RBC adhesion to treated and untreated cells could be compared.
Multiple dose-finding experiments were conducted.

Another data set concerns the target T1, human P-selectin (Homo sapiens, UniProt P16109).
T1 construct: Fc (IgG Fc fusion partner)
Put plainly: Binding to P-selectin analyzed by optical biosensor (surface plasmon resonance, Biacore 2000). Particulars: read-out: apparent KD. Here is the method: The heparin derivatives were desalted and transferred into running buffer using desalting columns. The molar concentrations of the eluates were determined by analysis of UA content (mg/ml) using the phenylphenol method (Blumenkrantz et al. 1973 Anal Biochem 54, 484-9). […] The data was analyzed using BIAevaluation software, version 3. To prepare the biosensor assay, the capturing affinity purified goat anti-human IgG Fc antibody was immobilized onto a carboxymethyl dextran chip. The antibody was injected at a concentration of 50 μg/ml in 50 mM sodium acetate buffer, pH 5.0 for 12 min at […] resulting in a final response of approximately 16,200 response units (RU) in flow cell 1 and 13,400 RU in flow cell 2. Remaining activated groups were blocked with an injection of ethanolamine-HCl. The P-selectin/Fc chimera was captured onto the antibody surface in flow cell 2 (Bachelet L. et al. 2009, Biochim et Biophys Acta 1790, 1416), by injecting the molecule at a concentration of 35 ug/mL, using running buffer (10 mM Hepes, 150 mM NaCl, 1 mM CaCl2, 0.005% Tween-20, pH 7.4, filtered 0.02 μm) in the mobile phase. […] The binding of different heparin derivatives to P-selectin was analyzed using running buffer at 20 μl/min. After the association and dissociation phase of each sample, regeneration of the surface was performed using running buffer containing 0.8 M NaCl. Data from the reference surface was subtracted from the data from the P-selectin surface. Stability of the P-selectin surface was verified by measuring the response from injections of 0.1 mg/mL heparin in the beginning and the end of each experiment.
The response data at steady-state was plotted against the concentration (data not shown). The data was analyzed using non-linear regression, assuming 1:1 binding. […] The peak value (Mp) was used instead of the (higher) Mw value when calculating the molar concentrations of UFH.
Background: Surface plasmon resonance follows binding to a sensor surface in real time, without labels.

The conditions of data set [2]: cited from earlier work.
A short description of data set [3]: APTT in citrate plasma of dosed rats. Format: in vivo, Sprague-Dawley rats. The settings on record: i.v. dosing, heparin = 1. Here is the method: (§1) Test procedures were as follows:
Citrate stabilized plasma was prepared from the blood.
(§2) Saline: (Negative Control) • 3.

Data set [4] is described as follows: Bleeding time after tail incision in rats. Format: in vivo, Sprague-Dawley rats. The settings on record: for Estimated equipotent doses with respect to effects on bleeding time, normalized vs. heparin: rats, i.v. dosing, heparin = 1. On the procedure: as §1
The incision was 9 mm long and 1 mm deep and was standardized using a template device. Blood was blotted from the incision until bleeding stopped. The time during which visible bleeding could be observed was measured, for up to 25 minutes. The longer the bleeding time, the more pronounced the anti-coagulant effects of the administered agent.
as §2

The test system of data set [5] is SS RBC adhesion to the endothelium. The source says:
These experiments utilize a previously described animal model (Zennadi et al. Blood 2007), in which window chambers are first implanted into the flanks of nude mice. Three to five days later, human normal or sickle red cells are infused into the mouse (usually through the tail vein) pre-treated with TNF-α (to induce inflammation and upregulate P-selectin expression); mice treated with vehicle only may be studied as controls. Female mice (nu−/nu−) 8-12 weeks in age from Jackson Laboratories, Bar Harbor, Me., were used to perform experiments described.
RBCs to be infused are pre-labelled with a fluorescent dye. The cells' adhesion may then be observed in subdermal blood vessels visible through the previously implanted window chambers. […] In addition, in some of these experiments, blood samples were drawn during the observation period in order to quantitate specific variables, such as cell survival. This model has the great advantages of providing direct visualization of cells in the context of whole blood and of allowing circulation of transfused cells under normal circulatory pressures.

Data set [6] has as its system factor Xa. Particulars: measured values on the produced DF02.
The target in data set [7] is T2, factor IIa (Homo sapiens, UniProt P00734+P01008). Particulars: measured values on the produced DF02.
Data set [8] relates to factor Xa. The settings on record: comparison value; cited from earlier work.
For data set [9], the target named is T2, factor IIa. Particulars: comparison value; cited from earlier work.
For data set [10] the following is noted: daily prophylactic dose, four patients; cited from earlier work.
The mark [11] stands for this setting: steady-state response, non-linear regression assuming 1:1 binding, P-selectin/Fc chimera captured on chip.
Setting [12] is: injected before and after induction of vaso-occlusion.

T1 sequence (P16109 with tags, fused parts or gaps limits assumed): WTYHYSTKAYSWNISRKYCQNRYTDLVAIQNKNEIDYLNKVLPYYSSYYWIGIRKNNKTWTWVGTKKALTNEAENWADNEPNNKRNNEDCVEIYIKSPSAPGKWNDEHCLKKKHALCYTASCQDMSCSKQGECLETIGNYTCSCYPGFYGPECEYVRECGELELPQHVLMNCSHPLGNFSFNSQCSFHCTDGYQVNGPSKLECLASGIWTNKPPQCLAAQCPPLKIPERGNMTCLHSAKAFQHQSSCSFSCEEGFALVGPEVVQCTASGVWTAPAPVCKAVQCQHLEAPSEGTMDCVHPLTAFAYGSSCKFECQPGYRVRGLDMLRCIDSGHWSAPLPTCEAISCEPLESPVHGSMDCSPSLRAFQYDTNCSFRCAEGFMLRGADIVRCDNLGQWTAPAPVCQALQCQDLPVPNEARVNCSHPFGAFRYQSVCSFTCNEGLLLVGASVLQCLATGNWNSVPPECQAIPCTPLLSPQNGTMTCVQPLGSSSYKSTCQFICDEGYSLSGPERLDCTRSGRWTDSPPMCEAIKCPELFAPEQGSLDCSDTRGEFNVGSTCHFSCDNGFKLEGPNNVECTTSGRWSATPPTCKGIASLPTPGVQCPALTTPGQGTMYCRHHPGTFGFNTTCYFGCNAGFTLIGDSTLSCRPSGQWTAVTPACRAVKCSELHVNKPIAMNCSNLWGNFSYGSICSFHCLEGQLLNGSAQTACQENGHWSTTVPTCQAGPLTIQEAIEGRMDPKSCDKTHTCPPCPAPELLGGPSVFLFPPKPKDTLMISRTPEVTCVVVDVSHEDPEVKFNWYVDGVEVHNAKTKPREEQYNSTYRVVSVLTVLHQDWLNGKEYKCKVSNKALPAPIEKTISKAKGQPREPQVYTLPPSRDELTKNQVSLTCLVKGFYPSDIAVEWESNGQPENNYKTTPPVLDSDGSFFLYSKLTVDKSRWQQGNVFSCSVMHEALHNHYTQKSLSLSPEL

As to Tinzaparin natrium, the “Inhibition of SS RBC adhesion to endothelial cells (overall)” value in [1] is “quite effective in reducing SS RBC adhesion”. The Kd at human P-selectin (setting [11]) came out at 4000 nM. Also, the Bleeding events result in [2] (clinical study) is reported as “several cases of bleeding events”. Further, in [2] (sickle VOC), the Duration of hospitalization result is “significantly shortened” and the “Duration of the most-severe pain scores” value is listed as “significantly shortened”.

In the case of sevuparin sodium [DF02], the “Effect on SS RBC adhesion” value was “appeared to inhibit adhesion as much as did higher concentrations; also recorded: easily detectable” in [1] (100 μg/ml); “little effect” in data set [1] (10 and 50 μg/ml). In addition, the “Inhibition of SS RBC adhesion compared to tinzaparin” value in data set [1] (400 μg/ml, most samples) is on record as “equivalent to the same concentration of tinzaparin”. For the same substance, the “Inhibition of SS RBC adhesion to endothelial cells (overall)” value in data set [1] is “able to inhibit SS RBC adhesion”. In addition, the “Estimated equipotent doses with respect to effects on APTT, normalized vs. heparin” value in data set [3] is 30-40. Further, the “Anti-coagulant effect (bleeding time and coagulation parameters)” value in data set [4] (adult rats, i.v.) is given as “reduced anti-coagulant effect”; in [4] (juvenile rats of age 14±1 days) it was “reduced anti-coagulant effect”. Besides, in data set [4], the “Estimated equipotent doses with respect to effects on bleeding time, normalized vs. heparin” value is listed as 30-50. The “Vessel occupancy, decrease” value in [5] (as compared to a saline injection) turned out to be 50%. Also, in data set [5] (setting [12]), the “Effect on adhered SS-RBC” value is “inhibition and reversal of adhered SS-RBC”. For the same substance, the “Effect on blood flow” value in data set [5] (setting [12]) is reported as “partial normalization of the blood flow”. Also, the “Number of vessels that reached a normalized blood flow” value in [5] (mouse, in vivo) is listed as “dose dependent effect”. For the same substance, the antiXa activity entry in the data set on factor Xa [6] is reported as “less than 10 IU/mg”. The Kd at human P-selectin came out at 700 nM. Further, the “Effect on PT” value reads like this: (adult rats) “too weak to allow for comparative estimates”; (juvenile rats) “weak”. Besides, the antiIIa activity result on factor IIa [7] was “less than 10 IU/mg”.

For Heparin Sodium, the “Corresponding value of specific anticoagulant activity (anti-factor Xa)” value in the data set on factor Xa [8] was “at least 180 IU/mg”. In data set [3], the “Estimated equipotent doses with respect to effects on APTT, normalized vs. heparin” value is 1. In addition, the “Anti-coagulant effect (bleeding time and coagulation parameters)” value in data set [4] (adult rats, i.v.) is reported as “profound dose-related effects on all parameters investigated”. The “Estimated equipotent doses with respect to effects on bleeding time, normalized vs. heparin” value in [4] was 1. In addition, the “Corresponding value of specific anticoagulant activity (anti-factor IIa)” value on factor IIa [9] is “at least 180 IU/mg”. For the same substance, the “Pain and days at hospital” value in data set [10] is “pain reduction and fewer days at hospital”. Moreover, the Kd at human P-selectin (setting [11]) turned out to be 200 nM.

The values above are taken from patent US9480702B2, “Use of chemically modified heparin derivates in sickle cell disease” (DILAFORETTE AB, priority 2011, dated 2016).
